Source: publication PMC5004831, “Molecular and biochemical characterization of carbonic anhydrases of Paracoccidioides” (Genetics and Molecular Biology, 2016)

Experiments:
[1] = biological target: T1, rCA1 (CA1), beta-class carbonic anhydrase of Paracoccidioides (Paracoccidioides lutzii, UniProt C1H4M3); assay: CO2 hydration, electrometric (Wilbur-Anderson); assay type: biochemical; details: read-out: CA1- Residual Activity (%)
T1 construct: gene PAAG_05716; complete cDNA, 282 residues, GST fusion (pGEX-4T-3) from E. coli, GST cut by thrombin; 33 kDa
T1 sequence (C1H4M3 1-282): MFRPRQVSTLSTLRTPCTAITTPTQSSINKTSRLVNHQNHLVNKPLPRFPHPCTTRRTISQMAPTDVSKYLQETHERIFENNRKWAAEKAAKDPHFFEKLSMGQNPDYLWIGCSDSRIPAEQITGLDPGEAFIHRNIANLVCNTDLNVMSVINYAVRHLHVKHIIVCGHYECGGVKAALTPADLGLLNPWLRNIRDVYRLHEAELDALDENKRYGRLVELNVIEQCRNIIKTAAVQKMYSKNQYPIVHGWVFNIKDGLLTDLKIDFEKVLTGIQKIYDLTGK
From the text: CO2 hydration, electrometric (Wilbur-Anderson) on rCA1 (CA1), beta-class carbonic anhydrase of Paracoccidioides

[2] = biological target: T2, rCA4 (CA4), alpha-class carbonic anhydrase of Paracoccidioides (Paracoccidioides brasiliensis, UniProt B1PIT4); assay: CO2 hydration, electrometric (Wilbur-Anderson); assay type: biochemical; details: read-out: CA4- Residual Activity (%)
T2 construct: 32 kDa
T2 sequence (B1PIT4 1-301): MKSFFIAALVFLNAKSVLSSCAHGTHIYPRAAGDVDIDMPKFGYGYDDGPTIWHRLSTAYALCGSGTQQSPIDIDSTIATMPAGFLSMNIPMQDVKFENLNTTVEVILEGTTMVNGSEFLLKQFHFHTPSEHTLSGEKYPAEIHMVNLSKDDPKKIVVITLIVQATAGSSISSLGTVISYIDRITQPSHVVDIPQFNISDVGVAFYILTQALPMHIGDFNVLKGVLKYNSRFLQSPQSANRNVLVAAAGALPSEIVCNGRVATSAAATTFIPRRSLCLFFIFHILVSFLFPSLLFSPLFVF
From the text: CO2 hydration, electrometric (Wilbur-Anderson) on rCA4 (CA4), alpha-class carbonic anhydrase of Paracoccidioides

| SMILES | remaining activity at 25 µM [1] | remaining activity at 25 µM [2] |
| --- | --- | --- |
| N=C(N)NCCC[C@H](N)C(=O)O [L-Arg] | 130% | 132% |
| N[C@@H](Cc1cnc[nH]1)C(=O)O [L-His] | 142% | 152% |
| NCCCC[C@H](N)C(=O)O [L-Lys] | 138% | 140% |
| N[C@@H](Cc1c[nH]c2ccccc12)C(=O)O [L-Trp] | 162% | 158% |
